Data taken from patent US4618610A, “Triazine derivatives, and pharmaceutical compositions comprising the same” (Fujisawa Pharmaceutical Co., Ltd., priority 1983, dated 1986).
Like-named read-outs stand apart in the source and are kept apart here.

What was measured:
blood pressure = test: Test method A: antihypertensive activity, oral, in uninephrectomized DOCA/saline rats; type: in vivo, rat (Wister); conditions: orally, DOCA rats, mean arterial pressure
Protocol: Five-week old male Wister rats were uninephrectomized under anesthesia. Deoxycorticosterone […] (DOCA) (30 mg/kg), suspended in peanut oil, was injected subcutaneously twice a week and 1% saline was substituted for the drinking water. Animals with mean blood pressure 150-200 mmHg were used for experiment between 5 and 7 weeks after surgery.
The test compounds were administered orally.
Blood pressure was measured at the femoral artery by means of a pressure transducer and recorded as electrically integrated values of mean arterial pressure.
a: The test compound were administered orally in a dose of 1 mg/kg.
b: The test compound were administered orally in dose of 0.1 mg/kg.

platelet = test: Test Method B: inhibition of platelet aggregation in platelet rich plasma; type: cell-based; conditions: Oryctolagus cuniculus, rabbit PRP, 37° C.
Protocol: Platelet rich plasma (PRP) which contains 6.5-7.5×10^8 platelet/ml was prepared from rabbit blood. To the 200 ul of PRP, 5 μl of calcium chloride (1 mM) and 50 μl of pH 7.4 Tris-acetate solution (5 mM) containing 120 mM NaCl and test compound were added successively, and then stirred for 2 min. at 37° C. To the solution, 5 μl of adenosine diphosphate (ADP) (2.5 μM) or collagen (2.5 ug/ml) was added as an aggregation inducer. Aggregation was measured by using an aggregometer (NKK HEMA TRACER 1).

ethanol ulcer = test: Test methods C: ethanol ulcer (antiulcer activity); type: in vivo, rat (Sprague-Dawley); conditions: 32 mg/kg orally, 30 minutes before absolute ethanol (5 ml/kg)
Protocol: Five male Sprague-Dawley rats, aged 7 weeks and weighing about 200 g, were used per group for the study on ethanol ulcer after the fast for 24 hours.
Test compound was suspended in 0.1% methylcellulose aqueous solution, and the suspension (5 ml/kg) was orally given to each rat.
The control group was given a vehicle, i.e. 0.1% methylcellulose aqueous solution (5 ml/kg), alone in the same way.
Absolute ethanol (5 ml/kg) was orally administered 30 minutes after dosing with test compound, and one hour later, the rats were sacrificed and their stomachs were removed. The area of ulcers of each rat was measured. The mean area (mm^2) in the medicated group was compared with that in the control group.

[1] = ADP (2.5 μM) as aggregation inducer, read-out: ID50 ADP (platelet aggregation)
[2] = collagen (2.5 ug/ml) as aggregation inducer, read-out: ID50 Collagen (platelet aggregation)

| IC50 (platelet; [1]) [nM] | IC50 (platelet; [2]) [nM] | Structure (SMILES) | Effect Max (mean ratio of maximum decrease of blood pressure) (blood pressure; dose a: 1 mg/kg) [%] | Effect Max (mean ratio of maximum decrease of blood pressure) (blood pressure; dose b: 0.1 mg/kg) [%] | Effect (mean ulcer area compared with control group) (ethanol ulcer) [%] |
| --- | --- | --- | --- | --- | --- |
| 380 | 69 | CCOC(=O)Nc1ccc(C2=NNC(=O)NC2C)cc1 (stereo not shown) [Example 24-(4), 6-(4-Ethoxycarbonylaminophenyl)-5-methyl-4,5-dihydro-1,2,4-triazin-3(2H)-one] | 54.5 | 28.6 | – |
| 34 | 3.1 | CC1NC(=O)NN=C1c1ccc(NC(=O)C2CC2)cc1 (stereo not shown) [Example 24-(10), 6-(4-Cyclopropanecarbonylaminophenyl)-5-methyl-4,5-dihydro-1,2,4-triazin-3(2H)-one] | – | 41.1 | – |
| 620 | 220 | CC(=O)Nc1ccc(C2=NNC(=O)NC2C)cc1 (stereo not shown) [Example 1-(3), 6-(4-acetamidophenyl)-5-methyl-4,5-dihydro-1,2,4-triazin-3(2H)-one] | 48.9 | 19.2 | – |
| 740 | 410 | CNC(=O)Nc1ccc(C2=NNC(=O)NC2C)cc1 (stereo not shown) [Example 6, 6-[4-(3-methylureido)phenyl]-5-methyl-4,5-dihydro-1,2,4-triazin-3(2H)-one] | 43.1 | 6.6 | – |
| – | – | CC(=O)Nc1ccc(C2=NNC(=S)NC2C)cc1 (stereo not shown) [Example 23-(3), 6-(4-acetamidophenyl)-5-methyl-4,5-dihydro-1,2,4-triazin-3(2H)-thione] | – | – | 87.0 |
